For one experiment, the target named is IRAK4 kinase (Homo sapiens (Human), UniProt Q9NWZ3). As to the kind of experiment: IRAK4 kinase activity test (KinEASE-STK S1 HTRF kit). It is filed as biochemical. As to conditions: 2.5 nM IRAK4 kinase, 7 μM ATP, 37° C. 120 min. An outline of the steps:
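Human IRAK4 (2.5 nM) with 1 μM biotinylated peptide substrate and 7 μM ATP, incubated 120 min at 37 °C. HTRF read-out (Eu anti-phospho-Ser/Thr antibody, XL665-streptavidin; 665/620 nm ratio) after 1 h at room temperature. IC50 from inhibition relative to control by non-linear fit of log concentration.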
Background: TR-FRET usually uses a lanthanide donor and a delayed reading to cut background.

In experiment [1] the target is IRAK4 protein in THP-1 cells (Homo sapiens (Human), UniProt Q9NWZ3). As to the kind of experiment: Degradation of IRAK4 in THP-1 cells, human IRAK4 AlphaLISA assay. It is filed as cell-based. As to conditions: 24 h incubation. An outline of the steps:
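THP-1 cells, after overnight plating, exposed 24 h at 37 °C to compound at 0.03-3000 nM final. Lysate IRAK4 read by Western blot and by AlphaLISA (acceptor beads 10 μg/mL, biotin anti-IRAK4 1 nM, donor beads 40 μg/mL, 23 °C). DC50 and Dmax from log concentration-response fit.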

Experiment [2] relates to IL-6 production in LPS-induced human whole blood. As to the kind of experiment: IL-6 secreted by LPS-induced normal human whole blood PBMCs (IL-6 AlphaLISA). It is filed as cell-based. As to conditions: compound 20 h, then LPS 100 ng/mL 5 h. As for the experimental part:
Fresh normal human whole blood (healthy people from 22-50 years of age, freshly collected blood) anticoagulated with heparin sodium was plated onto a 96-well clear cell plate (Labserv, 310109008) at 190 μL/well, and 10 μL of diluted compound solution was then added to corresponding wells, such that the final concentration of the compound fell within the range of 10-20,000 nM. The final concentration of dimethyl sulfoxide was 0.1%. The compound-treated cell plate was sealed with a plate-sealing membrane. After the plate was incubated in a 37° C., 5% carbon dioxide incubator for 20 h, 10 μL of LPS (0111:B4) (Sigma, L4391) was added, making a final concentration of 100 ng/mL. […]
IL-6 standard solutions with different concentrations, ranging from […], were prepared by following the instructions for use of the product, 2 μL of each of the IL-6 standard solutions and test samples of cell supernatant were added to a white 384-well plate (PerkinElmer, 6007299), and 8 μL of a mixed solution of 5× anti-IL-6 receptor beads (PerminElmer, final concentration of 10 μg/mL) and biotin-labeled anti-IL-6 antibody (PerminElmer, final concentration of 1 nM) was then added to each well. […] After the incubation was complete, AlphaLISA signal values were measured on a microplate reader EnVision (PerkinElmer, 2105) in the AlphaScreen standard mode. […]

The test system of experiment [3] is IL-6 production in LPS-induced human PBMCs. As to the kind of experiment: IL-6 secreted by LPS-induced human PBMCs (IL-6 AlphaLISA). The conditions noted are these: PBMC, compound 1 h or 20 h, then LPS 100 ng/mL 5 h, read-out: hPBMC IC50. Format: cell-based. As for the experimental part:
Frozen human PBMCs (Milestone, PB010C) were thawed and resuspended in RPMI 1640 medium (Gibco, A1049101) supplemented with 10%/o fetal bovine serum (Gibco, 10099141), 100 U/mL penicillin and 100 sg/mL streptomycin (Gibco, 15140122). On the same day. PBMCs were plated onto a 96-well clear cell plate (Labserv, 310109008) at 150 μL/well, with a cell density of 2×10^5 cells/well. Then 50 μL of diluted compound solution was added to corresponding wells with cells, such that the final concentration of the compound fell within the range of 0.026-10,000 nM. The final concentration of DMSO was 0.25%. […]
IL-6 standard solutions with different concentrations, ranging from […], were prepared by following the instructions for use of the product, 2 μL of each of the IL-6 standard solutions and test samples of cell supernatant were added to a white 384-well plate (PerkinElmer, 6007299), and 8 μL of a mixed solution of 5×anti-IL-6 receptor beads (final concentration of 10 μg/mL) and biotin-labeled anti-IL-6 antibody (final concentration of 1 nM) was then added to each well. […] After the incubation was complete, AlphaLISA signal values were measured on a microplate reader EnVision (PerkinElmer, 2105) in the AlphaScreen standard mode. […] The inhibition rate of the compound at each concentration was calculated by comparing the IL-6 concentration with that of the control group. […]
In general terms: Bead proximity is the source of the signal in Alpha formats.

Molecules are shown by their SMILES.

IRAK4 kinase, sequence (Q9NWZ3 whole entry): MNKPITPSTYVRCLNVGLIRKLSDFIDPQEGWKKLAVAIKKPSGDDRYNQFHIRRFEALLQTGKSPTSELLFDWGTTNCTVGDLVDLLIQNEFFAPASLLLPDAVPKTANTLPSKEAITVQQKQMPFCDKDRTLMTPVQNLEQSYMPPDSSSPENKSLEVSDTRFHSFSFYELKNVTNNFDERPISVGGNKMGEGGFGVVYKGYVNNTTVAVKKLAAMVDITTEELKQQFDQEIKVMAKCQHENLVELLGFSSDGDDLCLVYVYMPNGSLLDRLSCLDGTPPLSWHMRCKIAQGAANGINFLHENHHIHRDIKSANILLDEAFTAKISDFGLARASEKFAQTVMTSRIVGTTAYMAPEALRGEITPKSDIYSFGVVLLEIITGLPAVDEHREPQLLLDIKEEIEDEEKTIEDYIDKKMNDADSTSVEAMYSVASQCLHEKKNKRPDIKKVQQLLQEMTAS
IRAK4 protein in THP-1 cells, sequence (Q9NWZ3 whole entry): as above

Usually IC50 stands for the concentration that gives 50% inhibition. As a reminder, the DC50 is the concentration at which degradation of the target reaches its halfway point. Read a high DC50 as a less potent degrader. As a reminder, the Dmax is the largest share of the target that was removed. High values mean deep degradation, low ones shallow degradation. Turning to `O=C1CCN(c2cc(C(=O)N3CCC4(CCC(CN5CCC(n6cc(NC(=O)c7cnn8ccc(N9C[C@H]%10C[C@@H]9CO%10)nc78)c(C(F)F)n6)CC5)CC4)CC3)ccc2Cl)C(=O)N1` [Example 1, 5-((1R,4R)-2-oxa-5-azabicyclo[2.2.1]heptan-5-yl)-N-(1-(1-((3-(4-chloro-3-(2,4-dioxotetrahydropyrimidin-1(2H)-yl)benzoyl)-3-azaspiro[5.5]undecan-9-yl)methyl)piperidin-4-yl)-3-(difluoromethyl)-1H-pyrazol-4-yl)pyrazolo[1,5-a]pyrimidine-3-carboxamide], the IC50 is 30.3 nM against IRAK4 kinase, 287 nM in experiment [2] and 3.1 nM in experiment [3]. In experiment [1], this compound yielded a half-maximal degradation concentration (DC50) of 3.7 nM. For the same compound, the Dmax in experiment [1] turned out to be 90%.
Consider `O=C1CCN(c2cc(C(=O)N3CCC4(CCN(C[C@H]5CC[C@H](n6cc(NC(=O)c7cnn8ccc(N9C[C@H]%10C[C@@H]9CO%10)nc78)c(C(F)F)n6)CC5)CC4)CC3)ccc2Cl)C(=O)N1` [Example 2, 5-((1R,4R)-2-oxa-5-azabicyclo[2.2.1]heptan-5-yl)-N-(1-((1r,4R)-4-((9-(4-chloro-3-(2,4-dioxotetrahydropyrimidin-1(2H)-yl)benzoyl)-3,9-diazaspiro[5.5]undecan-3-yl)methyl)cyclohexyl)-3-(difluoromethyl)-1H-pyrazol-4-yl)pyrazolo[1,5-a]pyrimidine-3-carboxamide], for which the IC50 was determined as 15.5 nM against IRAK4 kinase, 246 nM in experiment [2] and 2.2 nM in experiment [3]. In addition, the DC50 in experiment [1] came to 1.8 nM. In addition, the Dmax in experiment [1] turned out to be 95.8%.
The compound `N[C@H]1CCCN(c2ccn3ncc(C(=O)Nc4cn(C5CCN(CC6CCC7(CC6)CCN(C(=O)c6ccc(Cl)c(N8CCC(=O)NC8=O)c6)CC7)CC5)nc4C(F)F)c3n2)C1` [Example 64, (S)-5-(3-aminopiperidin-1-yl)-N-(1-(1-((3-(4-chloro-3-(2,4-dioxotetrahydropyrimidin-1(2H)-yl)benzoyl)-3-azaspiro[5.5]undecan-9-yl)methyl)piperidin-4-yl)-3-(difluoromethyl)-1H-pyrazol-4-yl)pyrazolo[1,5-a]pyrimidine-3-carboxamide] displayed an IC50 at IRAK4 kinase of 5.93 nM. For the same compound, in experiment [1], the DC50 came out at 7.47 nM and the Dmax was determined as 96.1%.

For the origin of these results see patent US20240368194A1, “IRAK4 DEGRADATION AGENT, AND PREPARATION METHOD THEREFOR AND USE THEREOF” (SHANGHAI LEADINGTAC PHARMACEUTICAL CO. LTD., priority 2021, published 2024).
